{
  "source": "ChEMBL document CHEMBL1146058",
  "about": "“Discovery of trans-3,4'-bispyridinylethylenes as potent and novel inhibitors of protein kinase B (PKB/Akt) for the treatment of cancer: Synthesis and biological evaluation” (Bioorg Med Chem Lett, 2006)",
  "key": {"[1]": {"target": "T1, RAC-alpha serine/threonine-protein kinase (Homo sapiens, UniProt P31749)", "T1 sequence (P31749 whole entry)": "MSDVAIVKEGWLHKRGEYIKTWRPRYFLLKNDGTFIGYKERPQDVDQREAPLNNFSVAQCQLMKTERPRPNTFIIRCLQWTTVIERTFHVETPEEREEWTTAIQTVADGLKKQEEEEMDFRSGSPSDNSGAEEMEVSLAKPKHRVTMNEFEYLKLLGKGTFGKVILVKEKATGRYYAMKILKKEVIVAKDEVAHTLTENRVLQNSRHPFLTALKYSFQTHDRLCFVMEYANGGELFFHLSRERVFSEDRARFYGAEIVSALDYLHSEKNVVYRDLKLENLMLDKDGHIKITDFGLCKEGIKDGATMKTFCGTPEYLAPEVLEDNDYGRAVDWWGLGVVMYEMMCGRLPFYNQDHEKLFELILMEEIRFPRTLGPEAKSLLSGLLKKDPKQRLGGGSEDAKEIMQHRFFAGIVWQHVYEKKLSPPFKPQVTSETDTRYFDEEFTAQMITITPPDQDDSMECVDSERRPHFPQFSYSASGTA", "experiment": "Inhibition of Akt1 at 0.99 uM"}, "[2]": {"target": "T1, RAC-alpha serine/threonine-protein kinase", "experiment": "Inhibition of Akt1 at 5.33 uM"}, "[3]": {"experiment": "Half life in mouse at 10 mg/kg", "type": "ADME, organism-based", "set-up": "dose 10 mg/kg", "conditions": "in vivo"}, "[4]": {"experiment": "Volume of distribution in mouse at 10 mg/kg", "type": "ADME, organism-based", "set-up": "dose 10 mg/kg", "conditions": "in vivo, read-out: Vdss"}, "[5]": {"experiment": "Plasma clearance in mouse at 10 mg/kg", "type": "ADME, organism-based", "set-up": "dose 10 mg/kg"}, "[6]": {"experiment": "Cmax in mouse at 10 mg/kg", "type": "ADME, organism-based", "set-up": "dose 10 mg/kg", "conditions": "in vivo"}, "[7]": {"experiment": "Oral bioavailability in mouse at 10 mg/kg", "type": "ADME, organism-based", "conditions": "in vivo"}, "[8]": {"experiment": "Oral bioavailability in rat at 5 mg/kg", "type": "ADME, organism-based", "conditions": "in vivo"}, "[9]": {"experiment": "Cmax in rat at 5 mg/kg", "type": "ADME, organism-based", "set-up": "dose 5 mg/kg", "conditions": "in vivo"}, "[10]": {"experiment": "Half life in rat at 5 mg/kg", "type": "ADME, organism-based", "set-up": "dose 5 mg/kg", "conditions": "in vivo"}, "[11]": {"experiment": "Volume of distribution in rat at 5 mg/kg", "type": "ADME, organism-based", "set-up": "dose 5 mg/kg", "conditions": "in vivo, read-out: Vdss"}, "[12]": {"experiment": "Plasma clearance in rat at 5 mg/kg", "type": "ADME, organism-based", "set-up": "dose 5 mg/kg"}, "[13]": {"target": "T1, RAC-alpha serine/threonine-protein kinase", "experiment": "Inhibition of Akt1 at 50 uM"}, "[14]": {"experiment": "Plasma clearance in mouse at 30 mg/kg", "type": "ADME, organism-based", "set-up": "dose 30 mg/kg"}, "[15]": {"experiment": "Oral bioavailability in dog at 2.5 mg/kg", "type": "ADME, organism-based, Canis lupus familiaris", "conditions": "in vivo"}, "[16]": {"experiment": "Oral bioavailability in mouse at 30 mg/kg", "type": "ADME, organism-based", "conditions": "in vivo"}, "[17]": {"experiment": "Plasma clearance in dog at 2.5 mg/kg", "type": "ADME, organism-based, Canis lupus familiaris", "set-up": "dose 2.5 mg/kg"}, "[18]": {"experiment": "Volume of distribution in dog at 2.5 mg/kg", "type": "ADME, organism-based, Canis lupus familiaris", "set-up": "dose 2.5 mg/kg", "conditions": "in vivo, read-out: Vdss"}, "[19]": {"experiment": "Plasma clearance in monkey at 2.5 mg/kg", "type": "ADME, organism-based, Macaca mulatta", "set-up": "dose 2.5 mg/kg", "conditions": "rhesus monkey"}, "[20]": {"experiment": "Half life in mouse at 30 mg/kg", "type": "ADME, organism-based", "set-up": "dose 30 mg/kg", "conditions": "in vivo"}, "[21]": {"experiment": "Half life in monkey at 2.5 mg/kg", "type": "ADME, organism-based, Macaca mulatta", "set-up": "dose 2.5 mg/kg", "conditions": "rhesus monkey, in vivo"}, "[22]": {"experiment": "Volume of distribution in mouse at 30 mg/kg", "type": "ADME, organism-based", "set-up": "dose 30 mg/kg", "conditions": "in vivo, read-out: Vdss"}, "[23]": {"experiment": "Volume of distribution in monkey at 2.5 mg/kg", "type": "ADME, organism-based, Macaca mulatta", "set-up": "dose 2.5 mg/kg", "conditions": "rhesus monkey, in vivo, read-out: Vdss"}, "[24]": {"experiment": "Cmax in mouse at 30 mg/kg", "type": "ADME, organism-based", "set-up": "dose 30 mg/kg", "conditions": "in vivo"}, "[25]": {"experiment": "Cmax in monkey at 2.5 mg/kg", "type": "ADME, organism-based, Macaca mulatta", "set-up": "dose 2.5 mg/kg", "conditions": "rhesus monkey, in vivo"}, "[26]": {"experiment": "Oral bioavailability in monkey at 2.5 mg/kg", "type": "ADME, organism-based, Macaca mulatta", "conditions": "rhesus monkey, in vivo"}, "[27]": {"experiment": "Half life in dog at 2.5 mg/kg", "type": "ADME, organism-based, Canis lupus familiaris", "set-up": "dose 2.5 mg/kg", "conditions": "in vivo"}, "[28]": {"experiment": "Cmax in dog at 2.5 mg/kg", "type": "ADME, organism-based, Canis lupus familiaris", "set-up": "dose 2.5 mg/kg", "conditions": "in vivo"}, "[29]": {"target": "T1, RAC-alpha serine/threonine-protein kinase", "experiment": "Inhibition of Akt1 using 10 uM ATP"}, "MIA PaCa-2": {"tested_on": "MIA PaCa-2", "experiment": "Antiproliferative activity against MiaPaCa-2 cells by MTT assay", "type": "functional, cell-based", "conditions": "Homo sapiens"}},
  "data": [
    {"smiles": "N[C@@H](Cc1c[nH]cn1)C(=O)Nc1cncc(/C=C/c2ccncc2)c1", "values": [
      {"measurement": "inhibition", "setting": "[1]", "result": 73, "unit": "%"}
    ]},
    {"smiles": "N[C@H](COc1cncc(/C=C/c2ccncc2)c1)C(=O)Nc1ccc2ccccc2c1", "values": [
      {"measurement": "inhibition", "setting": "[2]", "result": 4, "unit": "%"}
    ]},
    {"smiles": "N[C@H](CNc1cnc(Cl)c(/C=C/c2ccncc2)c1)Cc1c[nH]c2ccccc12", "values": [
      {"measurement": "half-life", "setting": "[3]", "result": 0.6, "unit": "h"},
      {"measurement": "Vd", "setting": "[4]", "result": 9.5, "unit": "L/kg"},
      {"measurement": "clearance", "setting": "[5]", "result": 190, "unit": "mL/min/kg"},
      {"measurement": "Cmax", "setting": "[6]", "result": "< 20", "unit": "ng/mL"},
      {"measurement": "bioavailability", "setting": "[7]", "result": 0, "unit": "%"}
    ]},
    {"smiles": "N[C@H](COc1cncc(/C=C/c2ccncc2)c1)Cc1csc2ccccc12", "values": [
      {"measurement": "bioavailability", "setting": "[8]", "result": 43, "unit": "%"},
      {"measurement": "Cmax", "setting": "[9]", "result": 620, "unit": "ng/mL"},
      {"measurement": "half-life", "setting": "[10]", "result": 2.5, "unit": "h"},
      {"measurement": "Vd", "setting": "[11]", "result": 3.6, "unit": "L/kg"},
      {"measurement": "clearance", "setting": "[12]", "result": 16.7, "unit": "mL/min/kg"}
    ]},
    {"smiles": "N[C@H](COc1cnccc1/C=C/c1ccncc1)Cc1ccccc1", "values": [
      {"measurement": "inhibition", "setting": "[13]", "result": 29, "unit": "%"}
    ]},
    {"smiles": "N[C@H](COc1cccc(/C=C/c2ccncc2)c1)Cc1c[nH]c2ccccc12", "values": [
      {"measurement": "inhibition", "setting": "[2]", "result": 35, "unit": "%"}
    ]},
    {"smiles": "N[C@H](COc1cnc(Cl)c(/C=C/c2ccncc2)c1)Cc1c[nH]c2ccccc12", "values": [
      {"measurement": "clearance", "setting": "[14]", "result": 68.3, "unit": "mL/min/kg"},
      {"measurement": "bioavailability", "setting": "[8]", "result": 17, "unit": "%"},
      {"measurement": "bioavailability", "setting": "[15]", "result": 45, "unit": "%"},
      {"measurement": "Cmax", "setting": "[9]", "result": 60, "unit": "ng/mL"},
      {"measurement": "bioavailability", "setting": "[16]", "result": 11, "unit": "%"},
      {"measurement": "clearance", "setting": "[17]", "result": 23.3, "unit": "mL/min/kg"},
      {"measurement": "Vd", "setting": "[18]", "result": 11.1, "unit": "L/kg"},
      {"measurement": "clearance", "setting": "[19]", "result": 16.2, "unit": "mL/min/kg"},
      {"measurement": "half-life", "setting": "[20]", "result": 0.8, "unit": "h"},
      {"measurement": "half-life", "setting": "[21]", "result": 3, "unit": "h"},
      {"measurement": "Vd", "setting": "[22]", "result": 4.8, "unit": "L/kg"},
      {"measurement": "Vd", "setting": "[23]", "result": 4.2, "unit": "L/kg"},
      {"measurement": "half-life", "setting": "[10]", "result": 3.1, "unit": "h"},
      {"measurement": "Cmax", "setting": "[24]", "result": 940, "unit": "ng/mL"},
      {"measurement": "Cmax", "setting": "[25]", "result": 60, "unit": "ng/mL"},
      {"measurement": "bioavailability", "setting": "[26]", "result": 12, "unit": "%"},
      {"measurement": "Vd", "setting": "[11]", "result": 9.9, "unit": "L/kg"},
      {"measurement": "half-life", "setting": "[27]", "result": 5.4, "unit": "h"},
      {"measurement": "clearance", "setting": "[12]", "result": 36.7, "unit": "mL/min/kg"},
      {"measurement": "Cmax", "setting": "[28]", "result": 120, "unit": "ng/mL"}
    ]},
    {"smiles": "N[C@H](COc1cncc(/C=C/c2ccncc2)c1)C(=O)O", "values": [
      {"measurement": "inhibition", "setting": "[2]", "result": 11, "unit": "%"}
    ]},
    {"smiles": "N[C@H](COc1cncc(/C=C/c2ccccc2)c1)Cc1c[nH]c2ccccc12", "values": [
      {"measurement": "inhibition", "setting": "[2]", "result": 17, "unit": "%"}
    ]},
    {"smiles": "N[C@H](CCc1cnc(Cl)c(/C=C/c2ccncc2)c1)Cc1c[nH]c2ccccc12", "values": [
      {"measurement": "half-life", "setting": "[3]", "result": 0.2, "unit": "h"},
      {"measurement": "Vd", "setting": "[4]", "result": 4.9, "unit": "L/kg"},
      {"measurement": "clearance", "setting": "[5]", "result": 288, "unit": "mL/min/kg"},
      {"measurement": "Cmax", "setting": "[6]", "result": 90, "unit": "ng/mL"},
      {"measurement": "bioavailability", "setting": "[7]", "result": "< 10", "unit": "%"}
    ]},
    {"smiles": "C(=C\\c1cncc(OCCCc2c[nH]c3ccccc23)c1)/c1ccncc1", "values": [
      {"measurement": "IC50", "setting": "[29]", "result": "> 50", "unit": "µM"}
    ]},
    {"smiles": "N[C@H](COc1cncc(/C=C/c2ccncc2)c1)Cc1c[nH]c2ccccc12", "values": [
      {"measurement": "clearance", "setting": "[14]", "result": 95, "unit": "mL/min/kg"},
      {"measurement": "bioavailability", "setting": "[8]", "result": 21, "unit": "%"},
      {"measurement": "bioavailability", "setting": "[15]", "result": 52, "unit": "%"},
      {"measurement": "Cmax", "setting": "[9]", "result": 300, "unit": "ng/mL"},
      {"measurement": "bioavailability", "setting": "[16]", "result": 39, "unit": "%"},
      {"measurement": "clearance", "setting": "[17]", "result": 41.7, "unit": "mL/min/kg"},
      {"measurement": "Vd", "setting": "[18]", "result": 12.8, "unit": "L/kg"},
      {"measurement": "clearance", "setting": "[19]", "result": 26.7, "unit": "mL/min/kg"},
      {"measurement": "half-life", "setting": "[20]", "result": 0.8, "unit": "h"},
      {"measurement": "half-life", "setting": "[21]", "result": 3.7, "unit": "h"},
      {"measurement": "Vd", "setting": "[22]", "result": 6.5, "unit": "L/kg"},
      {"measurement": "Vd", "setting": "[23]", "result": 9.1, "unit": "L/kg"},
      {"measurement": "half-life", "setting": "[10]", "result": 3.1, "unit": "h"},
      {"measurement": "Cmax", "setting": "[24]", "result": 2780, "unit": "ng/mL"},
      {"measurement": "Cmax", "setting": "[25]", "result": 40, "unit": "ng/mL"},
      {"measurement": "bioavailability", "setting": "[26]", "result": 12, "unit": "%"},
      {"measurement": "Vd", "setting": "[11]", "result": 5.2, "unit": "L/kg"},
      {"measurement": "half-life", "setting": "[27]", "result": 3.2, "unit": "h"},
      {"measurement": "clearance", "setting": "[12]", "result": 20, "unit": "mL/min/kg"},
      {"measurement": "IC50", "setting": "MIA PaCa-2", "result": 12, "unit": "µM"},
      {"measurement": "Cmax", "setting": "[28]", "result": 100, "unit": "ng/mL"}
    ]},
    {"smiles": "N[C@H](COc1cc(/C=C/c2ccncc2)ccn1)Cc1c[nH]c2ccccc12", "values": [
      {"measurement": "inhibition", "setting": "[2]", "result": 16, "unit": "%"}
    ]}
  ]
}
